# Test results taken from the supplement of paper PMC10307832.
# Key:
# Assay in all cases: relative viability (nuclei count vs DMSO), 5 days (fraction); higher = more cells survive
# VE-821 + Foretinib = compound: CS(=O)(=O)c1ccc(-c2cnc(N)c(C(=O)Nc3ccccc3)n2)cc1 [VE-821] + COc1cc2c(Oc3ccc(NC(=O)C4(C(=O)Nc5ccc(F)cc5)CC4)cc3F)ccnc2cc1OCCCN1CCOCC1 [Foretinib] (partner 0.25 µM)
# In short: (§1)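 Relative viability is defined as nuclei in treated wells over nuclei in vehicle wells. Duplicate plates were run and medians reported. Lung cancer cell lines in 1536-well plates were dosed by pin tool one day after seeding, with one drug or with a fixed anchor-drug dose plus five library-drug doses (not always all listed) in √10 steps, and nuclei were counted after 5 days.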
# Ruxolitinib + Vorinostat = compound: N#CC[C@H](C1CCCC1)n1cc(-c2ncnc3[nH]ccc23)cn1 [Ruxolitinib] + O=C(CCCCCCC(=O)Nc1ccccc1)NO [Vorinostat] (partner 1 µM)
# In short: as §1
# Vismodegib + Tozasertib = compound: CS(=O)(=O)c1ccc(C(=O)Nc2ccc(Cl)c(-c3ccccn3)c2)c(Cl)c1 [Vismodegib] + Cc1cc(Nc2cc(N3CCN(C)CC3)nc(Sc3ccc(NC(=O)C4CC4)cc3)n2)n[nH]1 [Tozasertib] (partner 0.1 µM)
# In short: as §1
# VE-821 + Bortezomib = compound: CS(=O)(=O)c1ccc(-c2cnc(N)c(C(=O)Nc3ccccc3)n2)cc1 [VE-821] + CC(C)C[C@H](NC(=O)[C@H](Cc1ccccc1)NC(=O)c1cnccn1)B(O)O [Bortezomib] (partner 0.002 µM)
# In short: as §1
Cell Line,relative viability (VE-821 + Foretinib; first compound 0.08 µM),relative viability (VE-821 + Foretinib; first compound 0.253 µM),relative viability (VE-821 + Foretinib; first compound 0.8 µM),relative viability (VE-821 + Foretinib; first compound 2.53 µM),relative viability (VE-821 + Foretinib; first compound 8 µM),relative viability (Ruxolitinib + Vorinostat; first compound 0.08 µM),relative viability (Ruxolitinib + Vorinostat; first compound 0.253 µM),relative viability (Ruxolitinib + Vorinostat; first compound 0.8 µM),relative viability (Ruxolitinib + Vorinostat; first compound 2.53 µM),relative viability (Ruxolitinib + Vorinostat; first compound 8 µM),relative viability (Vismodegib + Tozasertib; first compound 0.08 µM),relative viability (Vismodegib + Tozasertib; first compound 0.253 µM),relative viability (Vismodegib + Tozasertib; first compound 0.8 µM),relative viability (Vismodegib + Tozasertib; first compound 2.53 µM),relative viability (Vismodegib + Tozasertib; first compound 8 µM),relative viability (VE-821 + Bortezomib; first compound 0.08 µM),relative viability (VE-821 + Bortezomib; first compound 0.253 µM),relative viability (VE-821 + Bortezomib; first compound 0.8 µM),relative viability (VE-821 + Bortezomib; first compound 2.53 µM),relative viability (VE-821 + Bortezomib; first compound 8 µM)
201T,1.09,1.17,0.784,0.968,0.6,1.12,1.16,1.21,1.25,1.17,0.914,0.919,0.987,0.946,0.966,1.11,1.06,1.07,1.07,1.06
A549,0.996,0.93,0.858,0.861,0.713,–,–,–,–,–,–,–,–,–,–,–,–,–,–,–
A-427,1.34,0.97,0.991,1.05,0.561,0.906,0.879,0.9,0.974,0.841,0.233,0.193,0.22,0.196,0.21,0.964,0.937,0.906,0.93,0.695
ABC-1,1.41,0.877,0.859,1.01,0.756,–,1.18,1.4,0.825,0.907,0.15,0.153,0.182,0.184,0.158,0.333,0.335,0.288,0.368,0.307
BEN,0.685,0.574,0.623,0.581,0.76,0.524,0.557,0.653,0.519,0.586,0.545,0.555,0.513,0.605,0.466,0.872,0.759,0.992,1.03,0.712
CAL-12T,1.27,1.09,1.01,0.976,0.92,0.86,0.693,0.848,0.653,0.69,0.301,0.28,0.321,0.35,0.328,1.04,0.984,1.13,0.996,0.717
COR-L23,1.09,0.974,0.915,1.27,0.917,0.579,0.347,0.463,0.403,0.287,0.203,0.218,0.181,0.177,0.168,1.1,0.997,1.06,1,1.06
COR-L 105,1.06,1.15,0.937,0.731,0.759,–,0.721,0.785,0.488,0.615,0.357,0.335,0.25,0.374,0.391,0.746,0.841,0.677,0.738,0.467
Calu-6,0.94,0.932,0.821,0.767,0.753,–,–,–,–,–,–,–,–,–,–,0.945,0.907,0.891,0.937,0.429
ChaGo-K-1,0.988,0.971,0.814,1,0.734,0.771,0.764,0.707,0.62,0.637,0.239,0.193,0.214,0.236,0.212,1,1.01,1.24,0.989,0.812
EBC-1,0.0973,0.103,0.0999,0.104,0.102,–,–,–,–,–,–,–,–,–,–,0.534,0.546,0.555,0.517,0.4
EKVX,0.801,0.673,0.574,0.874,0.582,0.57,0.744,0.719,0.628,0.588,0.392,0.358,0.409,0.414,0.373,1.06,1.11,1.02,1.21,0.912
EMC-BAC-2,1.05,0.944,0.856,1.05,0.949,0.412,0.432,0.443,0.621,0.279,0.281,0.284,0.288,0.292,0.316,1.12,1.08,1.15,1.11,1.04
EPLC-272H,0.803,0.747,0.804,0.692,0.341,0.586,0.447,0.463,0.249,0.337,0.254,0.273,0.34,0.348,0.148,0.955,0.927,1.12,1.13,0.814
H3255,0.883,0.843,0.913,0.91,0.857,–,0.9,0.892,0.791,0.382,0.524,0.55,0.623,0.606,0.563,0.799,0.882,0.813,0.853,0.906
HARA,1.06,0.888,0.798,0.812,0.574,0.594,0.576,0.566,0.488,0.512,0.124,0.126,0.112,0.097,0.0937,1.4,1.07,1.22,1.23,1.05
HCC-15,1.16,1.1,1.1,1.27,0.98,0.903,0.862,0.864,0.741,0.776,0.415,0.444,0.386,0.399,0.424,1.22,1.02,1.02,1.13,1.1
HCC-44,–,–,–,–,–,1.11,1.06,1.03,1.04,1.05,0.951,0.836,0.877,0.832,0.993,1,0.908,0.98,1.01,0.975
HCC-78,0.577,0.524,0.539,0.628,0.569,0.412,0.455,0.429,0.439,0.395,0.352,0.454,0.502,0.304,0.41,0.697,0.561,0.471,0.549,0.303
HCC-366,0.942,0.922,0.815,0.271,0.153,0.34,0.321,0.423,0.192,0.167,0.11,0.106,0.0997,0.0832,0.0622,1.06,1.03,1.04,0.625,0.062
HCC-827,1.13,0.956,1.02,1.05,0.827,–,0.871,0.767,0.751,0.84,0.42,0.419,0.432,0.392,0.423,1.01,0.996,1.04,1.12,1.08

Cell Line,relative viability (VE-821 + Foretinib; first compound 0.08 µM),relative viability (VE-821 + Foretinib; first compound 0.253 µM),relative viability (VE-821 + Foretinib; first compound 0.8 µM),relative viability (VE-821 + Foretinib; first compound 2.53 µM),relative viability (VE-821 + Foretinib; first compound 8 µM),relative viability (Ruxolitinib + Vorinostat; first compound 0.08 µM),relative viability (Ruxolitinib + Vorinostat; first compound 0.253 µM),relative viability (Ruxolitinib + Vorinostat; first compound 0.8 µM),relative viability (Ruxolitinib + Vorinostat; first compound 2.53 µM),relative viability (Ruxolitinib + Vorinostat; first compound 8 µM),relative viability (Vismodegib + Tozasertib; first compound 0.08 µM),relative viability (Vismodegib + Tozasertib; first compound 0.253 µM),relative viability (Vismodegib + Tozasertib; first compound 0.8 µM),relative viability (Vismodegib + Tozasertib; first compound 2.53 µM),relative viability (Vismodegib + Tozasertib; first compound 8 µM),relative viability (VE-821 + Bortezomib; first compound 0.08 µM),relative viability (VE-821 + Bortezomib; first compound 0.253 µM),relative viability (VE-821 + Bortezomib; first compound 0.8 µM),relative viability (VE-821 + Bortezomib; first compound 2.53 µM),relative viability (VE-821 + Bortezomib; first compound 8 µM)
HOP-62,1.14,1.04,1.07,1.22,1.09,0.606,0.59,0.688,0.594,0.685,0.307,0.327,0.345,0.343,0.332,0.726,0.389,0.889,0.838,0.718
IA-LM,1.2,0.957,1.15,1.04,1.03,0.896,1.12,1.17,0.929,1.19,–,–,–,–,–,0.762,0.795,0.781,0.803,0.764
LC-2-ad,1.04,1.05,1.03,1.17,1.03,0.798,0.715,0.728,0.698,0.64,0.504,0.545,0.427,0.434,0.462,1.19,1.06,0.569,1.17,1.07
LCLC-97TM1,1.12,1.05,0.878,0.98,0.885,0.741,0.604,0.734,0.722,0.63,0.22,0.284,0.218,0.239,0.273,0.633,0.634,0.726,0.541,0.568
LK-2,1.5,1.46,1.05,1.37,1.14,0.265,0.26,0.254,0.287,0.209,0.194,0.167,0.167,0.17,0.165,–,–,–,–,–
NCI-H358,0.687,0.598,0.591,0.896,0.624,0.624,0.645,0.673,0.509,0.417,0.0964,0.104,0.104,0.103,0.0976,–,–,–,–,–
NCI-H522,–,–,–,–,–,0.949,0.868,0.978,0.873,0.859,0.534,0.508,0.529,0.548,0.577,–,–,–,–,–
NCI-H1299,1.1,1.08,1.04,1,1,–,–,–,–,–,–,–,–,–,–,0.992,1,0.973,0.924,0.972
NCI-H1395,1.05,1.01,0.826,0.98,0.828,0.577,0.506,0.743,0.717,0.654,0.823,0.771,0.71,0.667,0.81,–,–,–,–,–
NCI-H1563,0.937,0.903,0.769,0.876,0.83,–,–,–,–,–,–,–,–,–,–,0.908,0.888,0.784,0.774,0.763
NCI-H1623,0.936,0.816,0.741,0.867,0.73,–,–,–,–,–,0.403,0.42,0.422,0.418,0.411,–,–,–,–,–
NCI-H1648,–,–,–,–,–,0.331,0.408,0.984,0.748,0.895,0.395,0.461,0.348,0.427,0.562,–,–,–,–,–
NCI-H1703,0.33,0.3,0.329,0.364,0.404,–,–,–,–,–,–,–,–,–,–,0.335,0.346,0.339,0.289,0.22
NCI-H1792,–,–,–,–,–,–,–,–,–,–,–,–,–,–,–,1.25,1.05,0.938,1.01,0.947
NCI-H1793,0.749,0.669,0.589,0.85,0.55,0.832,0.87,0.823,0.877,0.872,–,0.336,0.393,0.269,0.279,–,–,–,–,–
NCI-H1944,0.917,0.84,0.694,0.862,0.487,0.63,0.537,0.605,0.483,0.521,0.261,0.285,0.26,0.269,0.232,–,–,–,–,–
NCI-H2170,1.01,0.972,0.952,0.958,0.798,0.804,0.796,0.889,0.794,0.65,0.733,0.664,0.673,0.675,0.743,–,–,–,–,–
NCI-H2342,1.25,0.917,0.951,1.1,1,0.82,0.706,0.833,0.724,0.823,0.508,0.492,0.477,0.511,0.461,–,–,–,–,–
SK-MES-1,0.99,0.989,0.655,1.02,0.89,1.19,1.07,1.01,0.968,0.949,0.881,0.871,0.974,0.841,0.827,–,–,–,–,–
SW 900,0.848,0.997,0.836,0.916,0.681,0.587,0.746,0.774,0.707,0.881,0.52,0.574,0.56,0.426,0.435,–,–,–,–,–
